According to US8044029B2, “Sulfatides for treatment of autoimmune disorders” (Torrey Pines Institute for Molecular Studies, priority 2005, dated 2011):

System: chronic-relapsing EAE in SJL/J mice
Assay: Chronic-relapsing EAE, PLP139-151-immunized SJL/J mice
Format: in vivo, mouse
Conditions: 20 μg intraperitoneally at the onset of EAE, FIG. 3
Experimental: (§1) Wild type, SJL/J female mice, 6-8 week of age were immunized once subcutaneously with 75 μg of proteolipid protein peptide PLP139-151 emulsified in incomplete Freund's adjuvant (Difco, Detroit, Mich., USA) supplemented with attenuated M. tuberculosis (DIFCO) to 2 mg/ml. Mice were observed daily for signs of EAE for 50 days. The average disease score for each group was calculated by averaging the maximum severity of all of the affected animals in the group. Disease severity was scored on a 5-point scale, as described earlier: 1, flaccid tail; 2, hind limb weakness; 3, hind limb paralysis; 4, whole body paralysis; 5, moribund or death.
In the treatment protocol, 20 μg of bovine brain sulfatide in 200 μl of PBS or vehicle was given intraperitoneally at the onset of EAE and 2 weeks later. […]
as §1, with “wk” for “week”, “PLP139-151” for “proteolipid protein”, “peptide” for “peptide PLP139-151”, “IFA (DIFCO)” for “incomplete Freund's adjuvant (Difco, Detroit, Mich., USA)”, “Mice were observed daily for signs of EAE for 50 days.” left out, “death. […]” for “death.”

CCCCCCCC/C=C\CCCCCCCCCCCCCC(=O)N[C@@H](CO[C@@H]1O[C@H](CO)[C@H](O)[C@H](OS(=O)(=O)O)[C@H]1O)[C@H](O)/C=C/CCCCCCCCCCCCC [cis-tetracosenoyl sulfatide, (2S, 3R, 4E)-N-nervonic-1-[-D-(3-sulfate)-galactopyranosyl]-2-amino-octadecene-3-ol]
effect on ongoing chronic-relapsing EAE (disease score, 5-point scale): reverses ongoing chronic-relapsing EAE
